From ChEMBL document CHEMBL1141211, “2-(Quinazolin-4-ylamino)-[1,4]benzoquinones as covalent-binding, irreversible inhibitors of the kinase domain of vascular endothelial growth factor receptor-2” (J Med Chem, 2005) come the findings set out here.

Series [1] can be described thus: Half life at 10 uM in the presence of 100 uM reduced glutathione in H2O-Acetonitrile (1:1). Type of series: ADME. The conditions noted are these: reduced glutathione solution in H2O-acetonitrile (1:1).
Series [2] can be described thus: Half life at 1 uM in the presence of 100 uM reduced glutathione in H2O-Acetonitrile (1:1). Type of series: ADME. To be noted: reduced glutathione solution in H2O-acetonitrile (1:1).
Series [3] addresses T1, Vascular endothelial growth factor receptor 2 (Homo sapiens, UniProt P35968). Description: Inhibition of poly(Glu4-Tyr)peptide phosphorylation by recombinant VEGFR2 at 10 uM ATP and in presence of 100 uM glutathione.
Series [4] addresses T1, Vascular endothelial growth factor receptor 2. The series can be described thus: Inhibition of poly(Glu4-Tyr)peptide phosphorylation by recombinant VEGFR2 at 10 uM ATP and in presence of 5% mouse plasma. Type of series: cell-free.
For series [5] the target is unchanged. Description: Inhibition of poly(Glu4-Tyr)peptide phosphorylation by recombinant VEGFR2 at 10 uM ATP.
For series [6] the target is unchanged. The series can be described thus: Inhibitory activity against VEGF stimulated autophosphorylation of VEGFR2 expressed in KDR15 cells. Type of series: cell-based.

Structures are written as SMILES. Bounds are passed on as bounds.

T1 sequence (P35968 whole entry): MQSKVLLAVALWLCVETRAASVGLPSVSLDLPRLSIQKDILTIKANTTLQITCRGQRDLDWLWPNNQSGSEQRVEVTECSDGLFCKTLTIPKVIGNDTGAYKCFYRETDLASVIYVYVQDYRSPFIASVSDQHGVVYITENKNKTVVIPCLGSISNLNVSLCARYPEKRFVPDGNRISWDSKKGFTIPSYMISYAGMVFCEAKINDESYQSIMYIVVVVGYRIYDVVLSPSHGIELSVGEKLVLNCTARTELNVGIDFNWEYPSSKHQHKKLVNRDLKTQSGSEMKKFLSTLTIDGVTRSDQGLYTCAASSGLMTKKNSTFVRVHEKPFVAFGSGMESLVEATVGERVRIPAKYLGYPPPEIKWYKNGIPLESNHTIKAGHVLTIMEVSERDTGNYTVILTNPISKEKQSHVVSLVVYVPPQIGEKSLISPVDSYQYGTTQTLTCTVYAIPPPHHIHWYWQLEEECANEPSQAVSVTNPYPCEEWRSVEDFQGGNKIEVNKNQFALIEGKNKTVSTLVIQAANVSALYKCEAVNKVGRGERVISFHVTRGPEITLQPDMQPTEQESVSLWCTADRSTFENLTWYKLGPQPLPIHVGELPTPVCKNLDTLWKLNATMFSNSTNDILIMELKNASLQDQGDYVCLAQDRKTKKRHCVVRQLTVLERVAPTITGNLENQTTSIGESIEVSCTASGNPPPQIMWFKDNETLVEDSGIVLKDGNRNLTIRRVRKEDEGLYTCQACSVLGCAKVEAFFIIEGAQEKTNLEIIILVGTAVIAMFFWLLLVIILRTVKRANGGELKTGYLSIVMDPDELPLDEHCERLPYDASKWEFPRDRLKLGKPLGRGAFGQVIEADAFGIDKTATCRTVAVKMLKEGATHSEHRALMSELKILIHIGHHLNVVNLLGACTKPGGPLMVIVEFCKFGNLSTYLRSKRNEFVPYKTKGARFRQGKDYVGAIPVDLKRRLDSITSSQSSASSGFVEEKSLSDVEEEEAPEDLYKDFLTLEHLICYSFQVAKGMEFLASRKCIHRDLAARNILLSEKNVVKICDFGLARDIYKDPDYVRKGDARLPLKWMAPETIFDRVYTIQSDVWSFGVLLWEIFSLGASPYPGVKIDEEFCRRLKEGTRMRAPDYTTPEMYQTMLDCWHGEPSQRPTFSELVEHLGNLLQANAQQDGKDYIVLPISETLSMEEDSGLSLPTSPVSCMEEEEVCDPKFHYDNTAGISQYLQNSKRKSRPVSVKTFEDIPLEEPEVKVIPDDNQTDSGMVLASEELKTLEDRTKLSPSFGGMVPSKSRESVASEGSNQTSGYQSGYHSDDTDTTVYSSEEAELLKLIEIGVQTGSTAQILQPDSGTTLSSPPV

On to `COCCOc1cc2ncnc(NC3=CC(=O)C(OC)=CC3=O)c2cc1OC`, for which the half-life at 10 µM in series [1] is 80 h. Moreover, the half-life at 1 µM in series [2] was 68 h.
As to `COCCOc1cc2ncnc(NC3=CC(=O)C(OCc4ccccc4)=CC3=O)c2cc1OC`, the half-inhibitory concentration (IC50) in series [3] was found to be 50.3 nM; in series [4] it was 366 nM; in series [5], 43 nM. Also, the half-life at 10 µM in series [1] was 54 h. In series [2], the half-life at 1 µM was 55 h.
With `COCCOc1cc2ncnc(NC3=CC(=O)C(OC(CF)CF)=CC3=O)c2cc1OC`, the half-life at 10 µM in series [1] is 15 h. In addition, in series [2], the half-life at 1 µM is 11 h.
For `COCCOc1cc2ncnc(NC3=CC(=O)C(N(C)c4ccccc4)=CC3=O)c2cc1OC`, in that order: 295 h and 341 h.
For `COCCOc1cc2ncnc(NC3=CC(=O)C(OC(C)C)=CC3=O)c2cc1OC`, the half-life at 10 µM in series [1] was 227 h. For the same compound, the half-life at 1 µM in series [2] is 213 h.
On to `COCCOc1cc2ncnc(NC3=CC(=O)C(Oc4ccccc4)=CC3=O)c2cc1OC`, for which the half-life at 10 µM in series [1] was less than 0.02 h. For the same compound, the half-life at 1 µM in series [2] is less than 0.02 h.
Regarding `COCCOc1cc2ncnc(NC3=CC(=O)C(N(C)C)=CC3=O)c2cc1OC`, the half-life at 10 µM in series [1] is 601 h. For the same compound, in series [2], the half-life at 1 µM was 160 h.
As to `COCCOc1cc2ncnc(NC3=CC(=O)C(NCC(C)O)=CC3=O)c2cc1OC` (configuration not stated), the IC50 in series [3], in series [4] and in series [5] was greater than 1000 nM throughout.
As for `COCCOc1cc2ncnc(NC3=CC(=O)C(OC)=C(Cl)C3=O)c2cc1OC`, the half-life at 10 µM in series [1] was 0.5 h. For the same compound, the half-life at 1 µM in series [2] was less than 0.5 h.
For `COCCOc1cc2ncnc(NC3=CC(=O)C(Oc4ccc(-n5ccnc5)cc4)=CC3=O)c2cc1OC`, in that order: less than 0.02 h and less than 0.02 h.
For `COCCOc1cc2ncnc(NC3=CC(=O)C(N4CCN(Cc5ccccc5)CC4)=CC3=O)c2cc1OC`, the half-life at 10 µM in series [1] was 85 h. The half-life at 1 µM in series [2] is 73 h.
On the same counts, the results for `COCCOc1cc2ncnc(NC3=CC(=O)C(SC)=CC3=O)c2cc1OC` are 3 h and 2 h.
Consider `COCCOc1cc2ncnc(NC3=CC(=O)C(OCc4cccc(F)c4)=CC3=O)c2cc1OC`, for which the IC50 in series [3] stood at 41.9 nM; in series [4], 256 nM; in series [5] it was 31.2 nM.
For `CCOC1=CC(=O)C(Nc2ncnc3cc(OCCOC)c(OC)cc23)=CC1=O`, the IC50 in series [3], in series [4], in series [5] and in series [6] was greater than 1000 nM each time. In addition, the half-life at 10 µM in series [1] was 72 h. Besides, in series [2], the half-life at 1 µM was 62 h.
On to `COCCOc1cc2ncnc(NC3=CC(=O)C(Cl)=CC3=O)c2cc1OC`, for which the half-life at 10 µM in series [1] is less than 0.02 h. Further, in series [2], the half-life at 1 µM was less than 0.02 h.
With `COCCOc1cc2ncnc(NC3=C(Sc4ccccn4)C(=O)C=C(OC)C3=O)c2cc1OC`, the IC50 in series [3], in series [4] and in series [5] was greater than 1000 nM in each case.

Usually half-life stands for the time in which the quantity being followed falls by half. Broadly, the IC50 is the concentration that inhibits the measured activity by half.
